In patent US5759836A, “Osteoarthritis-associated inducable isoform of nitric oxide synthetase” (priority 1995, dated 1998):
Entries after “also recorded” stand apart in the source; their conditions may differ. Like-named read-outs stand apart in the source and are kept apart here.

Experiments:
human iNOS [1] = conditions: crude lysates; cited from earlier work
human chondrocyte NOS = conditions: cited from earlier work
iNOS [2] = assay: iNOS expression in stimulated rat chondrosarcomas; assay type: cell-based; conditions: for inhibition of iNOS expression in rat chondrosarcomas: 72 h, added 1 h prior to cytokines; for effect on iNOS in rat chondrosarcomas: LPS/cytokine-stimulated, L-NMMA 500 μM, indomethacin 20 μM
Procedure: NSAIDs were tested in: (FIG. 5A) rat chondrosarcomas stimulated with LPS, and (FIG. 5B) unstimulated OA cartilage (n=3).

OA-NOS [3] = assay: Nitrite release by OA-affected articular cartilage, ex vivo organ culture; assay type: cell-based, human
[4] = cited from earlier work
rabbit chondrocytes = conditions: cited from earlier work
OA-NOS [5] = assay: Sensitivity of OA-NOS to agents (Table 3 comparison)
iNOS [6] = assay: Nitrite accumulation in LPS-stimulated RAW 264.7 murine macrophages (Griess method); assay type: cell-based
Procedure: Effects of NSAIDs on Nitrite Accumulation. […] The expression and activity of iNOS were monitored by estimation of the stable end-product: nitrites.
concentrations of NSAIDs for 2 h followed by addition of 100 ng/ml of LPS
After 16-18 h of incubation, the medium was used to estimate the
accumulation of nitrite by the Greiss method (Green et al., Anal Biochem.
(§1) The specific activity of iNOS was determined in cellfre
(§2) extracts at a given time period as described. The nitrite and specific
activity data are representative of mean ± SD value, as determined by
student t test, for 10 and 4 independent experiments, respectively. The p
values described are compared with LPSstimulated cells. […]

human iNOS [7] = assay: Sensitivity of human iNOS to PDTC
murine iNOS = assay: Sensitivity of murine iNOS to PDTC
NF-κB = conditions: cited from earlier work
iNOS [8] = assay: Specific activity of iNOS in cell-free extracts of RAW 264.7 cells exposed to drug during LPS induction; assay type: cell-based, murine
Procedure: Assays for iNOS in Cell-Free Extracts. […] The reaction mixture for iNOS assay (in cell-free extracts) consists of Tris […] (pH 7.8); BSA 1 mg/ml; DTT 1 mM; CaCl2, 2 mM; FAD 10 μM; BH4 10 μM; L-arginine 30 μM; NADPH 1 mM. The assay mixture for cNOS consists of Tris 50 mM (pH 7.8); L-arginine 50 μM; calmodulin 10 μg/ml; BH4 10 μM; CaCl2 2 mM; NADPH 100 μM. RAW 264.7 cells were induced with LPS in the presence and absence of NSAIDs for 16-18 h. […] Cells were re-pelleted at 4° C. and resuspended in Tris buffer (10 mM, pH 7.4) containing 1 mg/ml each chymostatin, antipain, leupeptin and pepstatin, 1 mM DTT and 1 mM PMSF. Cells were lysed in a Polytron PT 1200 homogenizer (Kinematica AG, Switzerland) after 3 cycles of rapid freeze-thawing. The lysate was centrifuged at 16,000 rpm for 60 min at 4° C., and the supernatants were used as cell-free extracts. […] After 20 min the assays were terminated by heating the reaction mixture at 90° C. for 5 min. The precipitates were removed by centrifuging at 15,000 rpm for 20 min. Ten microliters (≈50,000 cpm) of the supernatant was spotted on activated Avicel TLC plates (Analtech, Newark, Del.). The TLC plates were developed in a solvent system consisting of ethanol:water:ammonia (80:16:4). Quantitation of the spot for L-[^3 3H]-citrulline was performed by a Bioscan System 200 Imaging Scanner. A phosphoimager can also be used for such quantification.
as §1, §2

iNOS [9] = assay: In vitro iNOS catalytic activity in cell-free extracts preincubated with drug (L-[3H]-arginine to L-[3H]-citrulline); assay type: biochemical, murine
iNOS [10] = assay: iNOS protein expression, Western blot, LPS-treated RAW 264.7 cells; assay type: cell-based, murine
Procedure: Western Blot Analysis. Equal amounts of protein (50 μg) estimated by BCA reagent (Pierce, Rockford, Ill.) were loaded onto SDS-PAGE gels and stained to verify the concentrations of various protein fractions by examining the intensities of the protein bands on the gels. Western blot analysis was carried out from the same cell extracts. The Western-blotted membrane was probed with a specific anti-iNOS monoclonal antibody, as specified by Transduction Laboratories (Lexington, Ky.). The blots were developed using the ECL Western blot system (Amersham, Arlington Heights, Ill.). Quantitation of the bands was performed using a densitometer from Molecular Dynamics (Sunnyville, Calif.).
The protein expression data are represented as
ND = not done. NS = not significant.
A Western blot analysis of iNOS protein was carried out in cells treated with […] LPS in the presence and absence of NSAIDs for 16-18 h.

neutrophil = conditions: data not shown; read-out: ability to inhibit fMet-Leu-Phe-induced neutrophil aggregation (IC50); cited from earlier work
COX = conditions: cited from earlier work
iNOS [11] = conditions: cited from earlier work
[12] = systemic, rodent; cited from earlier work
calmodulin = assay: Calmodulin binding of NOS isoforms
Procedure: Extraction of Human Chondrocyte NOS and Western Blotting. Slices from articular cartilage affected by OA were frozen at -70° C., milled to fine particulate in liquid nitrogen, and sequentially extracted (10 ml/gram wet weight tissue) with neutral salt buffer (Tris HCl:saline) containing protease inhibitors (1 mM PMSF, 2 mM N-ethylmaleimide, and 0.025 mg/ml leupeptin), followed with the same buffer containing 10 mM EDTA, with 4 M guanidine-HCl, and then with a detergent buffer containing 10% SDS with protease inhibitors. Samples were run on 9% or 4-15% gradient SDS-PAGE gels under non-reducing conditions, transferred to nitrocellulose, and Western blotted with α-iNOS/α-ncNOS or α-calmodulin mAb (Cho et al., J. Exp. Med. 176:599-604, 1992). Bound antibody was detected by a secondary antibody conjugated with horseradish peroxidase, and developed using the ECL Western blotting system (Amersham, Arlington Heights, Ill.) on Kodak Xomatic X-ray film.

O=C(O)CN(CCOCCOCCN(CC(=O)O)CC(=O)O)CC(=O)O [EGTA]
human iNOS activity (human iNOS [1]): markedly reduces
enzyme activity in cell-free extracts (human chondrocyte NOS): no effect on enzyme activity

CN=C(N)NCCC[C@H](N)C(=O)O [L-NMMA, N^G -monomethyl-L-arginine acetate]
inhibition of iNOS expression in rat chondrosarcomas (iNOS [2]): ~ 65%
effect on iNOS in rat chondrosarcomas (iNOS [2]): significant inhibition of iNOS
effect on nitrite accumulation / NOS expression in OA cartilage (OA-NOS [3]; unstimulated OA cartilage, L-NMMA 500 μM, indomethacin 5 μM): inhibited
paw swelling ([4]; partial inhibition of NOS): sufficient to reduce paw swelling
NO biosynthesis, paw swelling and histopathological changes in ankle joints ([4]; rat adjuvant arthritis): blocked (in a dose-dependent manner)
proteoglycan synthesis (rabbit chondrocytes): restored proteoglycan synthesis
sensitivity of OA-NOS (OA-NOS [5]): blocked; also recorded: shows sensitivity

S=C(S)N1CCCC1 [PDTC, pyrrolidine dithiocarbamate]
inhibition at 30 µM (iNOS [6]; Mus musculus, RAW264.7, 30 μM, read-out: block of nitrite accumulation): > 90%
inhibition at 30 µM (OA-NOS [3]; Homo sapiens, cycloheximide 35 μM or PDTC 30 μM, 24 h, cytokine/endotoxin-induced and control cartilage, read-out: block of nitrite accumulation): > 90%
effect on human iNOS (human iNOS [7]): not human iNOS
effect on murine iNOS (murine iNOS): blocks murine iNOS
inhibition of NF-κB as component of iNOS transcription/expression (NF-κB; 30 μM): inhibited
sensitivity of OA-NOS (OA-NOS [5]): blocked; also recorded: shows sensitivity

O=C([O-])c1ccccc1O.[Na+] [Sodium salicylate, sodium salicylate]
Nitrite released, Nitrite (iNOS [6]; 3 mM, LPS 100 ng/ml, 16-18 h): 27.1 ± 8.8 µM
IC50 (iNOS [6]; Mus musculus, RAW264.7, read-out: IC50 with respect to nitrite accumulation): 20 mM
inhibition at 3000 µM (iNOS [6]; Mus musculus, RAW264.7, read-out: Nitrite released, % inhibition, 3 mM, LPS 100 ng/ml, 16-18 h): ~7%
inhibition at 20000 µM (iNOS [6]; Mus musculus, RAW264.7, read-out: inhibition of accumulation of nitrites, 20 mM, suprapharmacological): 50%
inhibition at 5000 µM (iNOS [6]; Mus musculus, RAW264.7, read-out: inhibition of nitrite accumulation, 5 mM, suprapharmacological): 15 ± 1%
Specific activity of iNOS (iNOS [8]; 3 mM): 304.0 ± 48.1 pmol/min/mg protein
inhibition at 3000 µM (iNOS [8]; Mus musculus, RAW264.7, 16 h, read-out: Specific activity, % inhibition, 3 mM, cell-free extracts, 16 h): 2%
effect on specific activity of iNOS (iNOS [8]; NaSal 3 mM, indomethacin 5 μM (Table 1), therapeutic concentrations): did not inhibit
inhibition of iNOS catalytic activity in cell-free extracts (specific activity in in vitro assay) (iNOS [9]; 1 mM, 20 min preincubation): ~ 1%
effect on the catalytic activity of iNOS (iNOS [9]; indomethacin 5 μM, sodium salicylate 1 mM): no significant differences; also recorded: no significant effect on the catalytic activity of iNOS
inhibition of iNOS expression (iNOS [10]; 2-3 mM, variable in 4 independent experiments): 0-35%
effect on iNOS expression at increased concentration (iNOS [10]; 5 and 20 mM): did not cause increased inhibition of iNOS expression
inhibition at 2000 µM (iNOS [10]; Mus musculus, RAW264.7, read-out: inhibition of iNOS expression, 2 mM, Western blot, 16-18 h): ~15%
inhibition at 3000 µM (iNOS [10]; Mus musculus, RAW264.7, read-out: inhibition of iNOS protein expression, 3 mM, approximate, densitometry): ~15%
inhibition of iNOS expression in rat chondrosarcomas (iNOS [2]): ~ 55%
effect on iNOS in rat chondrosarcomas (iNOS [2]): significant inhibition of iNOS
effect on nitrite accumulation / NOS expression in OA cartilage (OA-NOS [3]): blocked iNOS expression in OA cartilage
rank order of inhibition of spontaneous nitrite accumulation (OA-NOS [3]): aspirin>indomethacin>sodium salicylate
IC50 (neutrophil): 3 mM
activation of NF-κB (NF-κB; 5-20 mM, suprapharmacological): interfere in the activation of NF-κB
NF-κB-dependent transcription (NF-κB; aspirin 3 mM, sodium salicylate 5 mM, luciferase reporter): inhibit NF-κB-dependent transcription
NF-κB activation, gel shift assays (NF-κB; same concentrations (aspirin 3 mM; sodium salicylate 5 mM)): no significant effect on NF-κB activation
COX inhibition (COX): an ineffective inhibitor of COX
sensitivity of OA-NOS (OA-NOS [5]): inhibited; also recorded: shows sensitivity

TGF-β1: cytokine TGF-β1
iNOS expression in macrophages (iNOS [11]): suppresses iNOS expression
arthritis morbidity / protection [12]: significant degree of protection

human hepatocyte iNOS: obtained from NIH 3T3 fibroblasts transduced with a retrovirus carrying the human hepatocyte iNOS cDNA
Calmodulin binding (calmodulin): complexed with calmodulin
